In brackets after ≈: the same amount, converted by molar mass. Blank lines part the entries; values can stand above or below the molecule they belong to.
Assays:
[1] = Oral bioavailability in rat at 3 mg/kg; format: ADME, organism-based; settings: in vivo
[2] = Metabolic stability in rat liver microsome assessed as compound remaining measured after 2 hrs; format: ADME; settings: microsomes
[3] = Metabolic stability in rat liver microsome assessed as compound remaining measured after 4 hrs; format: ADME; settings: microsomes
[4] = AUC in rat at 5 mg/kg, po; format: ADME, organism-based; set-up: dose 5 mg/kg, route po; settings: in vivo
[5] = target: Human immunodeficiency virus type 1 protease (Human immunodeficiency virus 1, UniProt Q72874); assay: Inhibition of HIV-1 protease by FRET-based assay
[6] = Solubility of compound at pH at 1 to 8; format: physicochemical
[7] = system: P-glycoprotein; assay: Efflux ratio of apparent permeability across basal to apical membrane over apical to basal membrane in human Caco-2 cells in absence of P-glycoprotein; format: ADME, cell-based
[8] = Metabolic stability in rat liver microsome assessed as half life […]; format: ADME; settings: liver microsomes
[9] = Aqueous solubility of compound; format: physicochemical; settings: buffer
[10] = system: CEM-SS; assay: Cytotoxicity against human CEM-SS cells assessed as inhibition of cell growth; format: functional
[11] = Efflux ratio of apparent permeability across apical to basolateral to basolateral to apical side in MDCK1 cells; format: ADME, cell-based
[12] = Equilibrium solubility of compound; format: physicochemical

bioavailability [1]: 32%
SMILES: CC(C)[C@H](N)C(=O)O[C@@H]1Cc2ccccc2[C@@H]1NC(=O)[C@H](Cc1ccccc1)C[C@H](O)CN1CCN(Cc2cccnc2)C[C@H]1C(=O)NC(C)(C)C

bioavailability [1]: 76%
SMILES: CC(C)(C)NC(=O)[C@@H]1CN(Cc2cccnc2)CCN1C[C@@H](O)C[C@@H](Cc1ccccc1)C(=O)N[C@H]1c2ccccc2C[C@H]1O.O

Stability [2]: 10%
Stability [3]: 46%
SMILES: Cc1cccc(C)c1OCC(=O)N[C@@H](Cc1ccccc1)[C@H](C[C@H](Cc1ccccc1)NC(=O)[C@H](C(C)C)N1CCCNC1=O)OC(=O)[C@@H](NC(=O)[C@@H](N)C(C)C)C(C)C

AUC [4]: 450 ng·h/mL
SMILES: CCCC(O[C@@H](C[C@H](Cc1ccccc1)NC(=O)[C@@H](NC(=O)N(C)Cc1csc(C(C)C)n1)C(C)C)[C@H](Cc1ccccc1)NC(=O)OCc1cncs1)OP(=O)([O-])[O-].[Na+].[Na+] (some centres not stated)

SMILES: COc1ccc(S(=O)(=O)N(CC(C)C)C[C@@H](O)[C@H](Cc2ccccc2)NC(=O)CCC(=O)O)cc1
IC50 [5]: 0.0118 µM

solubility [6]: > 3000 µg/mL
SMILES: CC(C)CN(C[C@@H](OP(=O)([O-])[O-])[C@H](Cc1ccccc1)NC(=O)O[C@H]1CCOC1)S(=O)(=O)c1ccc(N)cc1.[Na+].[Na+] [FOSAMPRENAVIR SODIUM]

efflux ratio [7]: 1.2
half-life [8]: 56 min
SMILES: CC(C)[C@@H](N)C(=O)O[C@H](CN1C[C@H]2CCCC[C@H]2C[C@H]1C(=O)NC(C)(C)C)[C@H](Cc1ccccc1)NC(=O)[C@H](CC(N)=O)NC(=O)c1ccc2ccccc2n1

solubility [9]: > 5000 µg/mL
AUC [4]: 19650 ng·h/mL
SMILES: Cc1cccc(C)c1OCC(=O)N[C@@H](Cc1ccccc1)[C@H](C[C@H](Cc1ccccc1)NC(=O)[C@H](C(C)C)N1CCCNC1=O)OCOP(=O)([O-])[O-].[Na+].[Na+]

SMILES: CCCCCCCC/C=C\CCCCCCCC(=O)OCC(COC(=O)CCCCCCC/C=C\CCCCCCCC)OC(=O)CCC(=O)O[C@H](CN1C[C@H]2CCCC[C@H]2C[C@H]1C(=O)NC(C)(C)C)[C@H](Cc1ccccc1)NC(=O)[C@H](CC(N)=O)NC(=O)c1ccc2ccccc2n1
CC50 [10]: > 100 µM

SMILES: CCCCCCCCCCCCCCCC(=O)OCC(COC(=O)CCCCCCCCCCCCCCC)OC(=O)CCC(=O)O[C@@H](C[C@@H](Cc1ccccc1)C(=O)N[C@H]1c2ccccc2C[C@H]1O)CN1CCN(Cc2cccnc2)C[C@H]1C(=O)NC(C)(C)C
CC50 [10]: > 100 µM

solubility [6]: > 3000 µg/mL
SMILES: CC(C)CN(C[C@@H](OP(=O)(O)O)[C@H](Cc1ccccc1)NC(=O)O[C@H]1CCOC1)S(=O)(=O)c1ccc(N)cc1 [FOSAMPRENAVIR]

SMILES: CCCCCCCC/C=C\CCCCCCCC(=O)OCC(COC(=O)CCCCCCC/C=C\CCCCCCCC)OC(=O)CCC(=O)O[C@@H](C[C@@H](Cc1ccccc1)C(=O)N[C@H]1c2ccccc2C[C@H]1O)CN1CCN(Cc2cccnc2)C[C@H]1C(=O)NC(C)(C)C
CC50 [10]: > 100 µM

Ratio [11]: 2.1
SMILES: CC(C)[C@H](NC(=O)CN)C(=O)O[C@H](CN1C[C@H]2CCCC[C@H]2C[C@H]1C(=O)NC(C)(C)C)[C@H](Cc1ccccc1)NC(=O)[C@H](CC(N)=O)NC(=O)c1ccc2ccccc2n1

efflux ratio [7]: 1.2
half-life [8]: 224 min
SMILES: CC(C)[C@H](NC(=O)[C@H](N)C(C)C)C(=O)O[C@H](CN1C[C@H]2CCCC[C@H]2C[C@H]1C(=O)NC(C)(C)C)[C@H](Cc1ccccc1)NC(=O)[C@H](CC(N)=O)NC(=O)c1ccc2ccccc2n1

SMILES: CCCCCCCCCCCCCCCC(=O)OCC(COC(=O)CCCCCCCCCCCCCCC)OC(=O)CCC(=O)O[C@H](CN1C[C@H]2CCCC[C@H]2C[C@H]1C(=O)NC(C)(C)C)[C@H](Cc1ccccc1)NC(=O)[C@H](CC(N)=O)NC(=O)c1ccc2ccccc2n1
CC50 [10]: > 100 µM

solubility thermodynamic [12]: 160 µM (≈ 80.9 µg/mL)
SMILES: CC(C)CN(C[C@@H](O)[C@H](Cc1ccccc1)NC(=O)O[C@H]1CCOC1)S(=O)(=O)c1ccc(N)cc1

efflux ratio [7]: 1.2
half-life [8]: 47 min
SMILES: CC(C)[C@H](N)C(=O)O[C@H](CN1C[C@H]2CCCC[C@H]2C[C@H]1C(=O)NC(C)(C)C)[C@H](Cc1ccccc1)NC(=O)[C@H](CC(N)=O)NC(=O)c1ccc2ccccc2n1

Source: ChEMBL document CHEMBL5260814, “Design strategies in the prodrugs of HIV-1 protease inhibitors to improve the pharmaceutical properties” (Eur J Med Chem, 2017)
